Test results as given in patent US6602516B1, “Antibiotic/medicated gutta percha point” (priority 2000, dated 2003).

Experiments:
Lactobacillus = test: Naval Dental School antibacterial study of iodoform/gutta percha (FIG. 1); assay type: cell-based
Description: (§1) However, it is not as effective against an oral salivary leakage contamination as determined by the previous leakage and bacterial investigations.
(§2) FIG. 1 is a table illustrating the results from a study at Naval Dental School, Bethesda, Md., the iodoform/gutta percha disclosed in U.S. Pat. No. 5,648,403, issued Jul. 15, 1997.

Actinomyces = test: as above; assay type: cell-based
Description: as §1, §2

Prevotella intermedius = test: as above; assay type: cell-based
Description: as §1, §2

Streptococcus mutans = test: as above; assay type: cell-based; settings: tested aerobe
Description: as §1, §2

Enterococci faecium = test: as above; assay type: cell-based; settings: facultative anaerobe
Description: as §1, §2

Escherchi coli = test: as above; assay type: cell-based; settings: tested aerobe
Description: as §1, §2

Staphylococcus aureus = test: as above; assay type: cell-based; settings: tested aerobe
Description: as §1, §2

Streptococcus sanguis = test: as above; assay type: cell-based; settings: tested aerobe
Description: as §1, §2

patients = settings: more than 1,000 patients; cited from earlier work

For `IC(I)I` [Iodoform, Triiodomethane (Iodoform)], the “effectiveness against Lactobacillus” value (Lactobacillus) was “ineffective”, the “effectiveness against Actinomyces” value (Actinomyces) was “ineffective” and the “effectiveness against Prevotella intermedius” value (Prevotella intermedius) was “ineffective”. The “effectiveness against Streptococcus mutans” value (Streptococcus mutans) was “ineffective”, the “effectiveness against Enterococci faecium” value (Enterococci faecium) was “ineffective” and the “effectiveness against Escherchi coli” value (Escherchi coli) was “ineffective”. For the same compound, the “effectiveness against Staphylococcus aureus” value (Staphylococcus aureus) was “ineffective” and the “effectiveness against Streptococcus sanguis” value (Streptococcus sanguis) was “ineffective”.

For `CN(C)[C@@H]1C(O)=C(C(N)=O)C(=O)[C@@]2(O)C(O)=C3C(=O)c4c(O)cccc4[C@@](C)(O)[C@H]3C[C@@H]12` [tetracycline], the allergic reactions (patients) is given as “no allergic reactions”.
